Reference: patent US11274115B2, “Imidazoquinoline derivatives and their use in therapy” (GLAXOSMITHKLINE BIOLOGICALS SA, priority 2016, dated 2022)
Like-named read-outs stand apart in the source and are kept apart here.

Legend:
Format in all cases: cell-based
[1] = tested on: human peripheral blood mononuclear cells (hPBMCs); experiment: IFN-γ induction in hPBMCs; settings: 24 h
Procedure: (§1) Assays to Measure Cytokine Induction
(§2) Test compounds were evaluated for cytokine induction in human peripheral blood mononuclear cells (hPBMCs).
(§3) Primary human PBMCs were isolated from fresh blood from healthy donors via Ficoll gradient separation and plated at 0.5×10^6 cells/well in 96-well tissue culture plates (RPMI-1640 plus 10% FBS). hPBMCs were maintained with RPMI-1640 culture media (Invitrogen, Grand Island, N.Y.), antibiotics (Invitrogen) and 10% FBS (Sigma).
(§4) Incubation and Assays for IFN-γ, IFN-α and TNF-α
(§5) hPBMCs were stimulated for 24 h with aqueous formulations of test compounds. Culture supernatants were analyzed for TNF-α and IFN-γ induction using multiplex kits (FluoroKine multiplex kits from R&D Systems, Minneapolis, Minn.) and for IFN-α induction using human IFN-α VeriKine ELISA kit (Pestka Biomedical Laboratories, Inc., Piscataway, N.J.).

human TLR7 = molecular target: T1, human TLR7 (Homo sapiens, UniProt Q9NYK1); experiment: hTLR7 agonist reporter assay in HEK293 cells (NFκB-SEAP); settings: for EC50: read-out: hTLR7 ED50; for hTLR7/8 ratio: hTLR7 ED50 over hTLR8 ED50; for hTLR7 agonist activity, in words: Table 3, FIG. 5
T1 construct: host or cells: HEK293
T1 sequence (Q9NYK1 27-1049): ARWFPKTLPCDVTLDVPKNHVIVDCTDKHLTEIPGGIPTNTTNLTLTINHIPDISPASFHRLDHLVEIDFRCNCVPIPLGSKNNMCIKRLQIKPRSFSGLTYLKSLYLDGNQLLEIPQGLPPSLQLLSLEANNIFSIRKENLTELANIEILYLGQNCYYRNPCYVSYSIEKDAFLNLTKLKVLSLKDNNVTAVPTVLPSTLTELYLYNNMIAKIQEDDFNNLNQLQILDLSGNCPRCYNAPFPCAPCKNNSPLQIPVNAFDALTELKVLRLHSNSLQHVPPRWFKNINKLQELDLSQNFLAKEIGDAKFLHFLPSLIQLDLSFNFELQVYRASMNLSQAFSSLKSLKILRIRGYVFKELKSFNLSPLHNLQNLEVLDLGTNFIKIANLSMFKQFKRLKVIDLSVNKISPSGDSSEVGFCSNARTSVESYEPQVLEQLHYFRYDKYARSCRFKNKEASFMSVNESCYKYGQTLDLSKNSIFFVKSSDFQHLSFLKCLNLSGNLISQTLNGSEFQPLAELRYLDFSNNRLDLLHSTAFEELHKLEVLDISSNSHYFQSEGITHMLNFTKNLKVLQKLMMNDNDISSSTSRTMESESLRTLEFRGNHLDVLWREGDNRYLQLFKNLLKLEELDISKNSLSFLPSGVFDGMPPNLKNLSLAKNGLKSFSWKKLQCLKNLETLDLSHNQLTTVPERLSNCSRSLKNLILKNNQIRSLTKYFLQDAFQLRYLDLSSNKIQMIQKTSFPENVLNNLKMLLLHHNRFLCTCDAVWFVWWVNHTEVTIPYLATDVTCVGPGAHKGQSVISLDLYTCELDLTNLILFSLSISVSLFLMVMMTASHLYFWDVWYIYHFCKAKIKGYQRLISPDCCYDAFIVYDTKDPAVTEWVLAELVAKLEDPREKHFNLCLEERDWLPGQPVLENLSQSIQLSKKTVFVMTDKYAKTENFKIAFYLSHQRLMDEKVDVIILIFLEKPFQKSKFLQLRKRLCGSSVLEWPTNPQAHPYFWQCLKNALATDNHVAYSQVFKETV
Procedure: (§6) Assay for hTLR7 and hTLR8 Agonist Activity in HEK-293 Cells
(§7) Determination of TLR agonist activity was performed using the HEK293 […]. This assay measures TLR7 and TLR8 selectivity and potency of the compounds tested. HEK293 cells expressing human TLR7 or TLR8 and NFκB responsive Secreted Embryonic Alkaline Phosphatase (SEAP) reporter gene were obtained from InvivoGen (San Diego, Calif.). These cells were maintained in culture media of Dulbecco's Modified Eagle Medium (DMEM) (Invitrogen, Grand Island, N.Y.), 10% Fetal Bovine Serum (FBS) (Sigma, St. Louis, Mo.) and selection antibiotics (Invitrogen, and Invivogen). HEK293 stably transfected with human TLR7 (hTLR7) or human TLR8 (hTLR8) were stimulated for 24 h with aqueous formulations of test compounds and culture supernatants were analyzed for NFκB activation using the colorimetric SEAP detection kit QuantBlue (InvivoGen).

human TLR8 = molecular target: T2, human TLR8 (Homo sapiens, UniProt Q9NR97); experiment: hTLR8 agonist reporter assay in HEK293 cells (NFκB-SEAP); settings: for EC50: read-out: hTLR8 ED50; for hTLR8 agonist activity, in words: Table 3, FIG. 6
T2 construct: host or cells: HEK293
T2 sequence (Q9NR97 27-1041): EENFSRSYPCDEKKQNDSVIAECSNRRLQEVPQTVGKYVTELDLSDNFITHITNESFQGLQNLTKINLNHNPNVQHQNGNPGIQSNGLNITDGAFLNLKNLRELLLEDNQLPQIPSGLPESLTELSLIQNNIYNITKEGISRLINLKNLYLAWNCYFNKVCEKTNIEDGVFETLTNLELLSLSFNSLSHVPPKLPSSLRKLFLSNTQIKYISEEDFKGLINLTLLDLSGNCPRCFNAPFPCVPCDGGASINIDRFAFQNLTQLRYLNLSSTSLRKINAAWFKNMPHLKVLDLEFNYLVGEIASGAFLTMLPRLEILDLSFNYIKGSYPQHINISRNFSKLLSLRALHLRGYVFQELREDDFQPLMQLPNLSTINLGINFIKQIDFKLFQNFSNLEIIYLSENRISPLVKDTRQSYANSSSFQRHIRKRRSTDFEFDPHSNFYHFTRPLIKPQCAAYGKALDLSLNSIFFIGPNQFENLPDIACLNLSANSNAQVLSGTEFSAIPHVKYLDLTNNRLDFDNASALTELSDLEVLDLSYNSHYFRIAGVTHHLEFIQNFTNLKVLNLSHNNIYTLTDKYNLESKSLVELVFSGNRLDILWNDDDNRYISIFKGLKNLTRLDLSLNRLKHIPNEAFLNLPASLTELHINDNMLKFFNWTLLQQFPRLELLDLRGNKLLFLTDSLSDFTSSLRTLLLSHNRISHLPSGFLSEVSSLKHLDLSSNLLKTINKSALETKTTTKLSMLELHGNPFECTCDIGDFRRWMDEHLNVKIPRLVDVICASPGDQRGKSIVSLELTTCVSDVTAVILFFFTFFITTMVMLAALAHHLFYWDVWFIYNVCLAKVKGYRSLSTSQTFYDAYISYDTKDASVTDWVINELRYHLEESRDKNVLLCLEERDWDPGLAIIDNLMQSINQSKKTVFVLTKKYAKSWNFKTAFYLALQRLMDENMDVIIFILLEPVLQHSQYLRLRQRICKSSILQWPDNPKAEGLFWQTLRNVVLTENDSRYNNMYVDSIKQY
Procedure: as §6, §7

[2] = tested on: human peripheral blood mononuclear cells (hPBMCs); experiment: TNF-α induction in hPBMCs; settings: 24 h
Procedure: as §1, §2, §3, §4, §5

[3] = tested on: human peripheral blood mononuclear cells (hPBMCs); experiment: IFN-α induction in hPBMCs; settings: 24 h
Procedure: as §1, §2, §3, §4, §5

[4] = Table 1, FIG. 1, 24 h stimulation, aqueous formulations
[5] = Table 2, FIG. 3, another occasion, * = only very low levels of NFKB activation were detected
[6] = Table 1, FIG. 2, 24 h stimulation, aqueous formulations
[7] = Table 2, FIG. 4, another occasion, * = only very low levels of NFKB activation were detected
[8] = Table 3, FIG. 5, another occasion, * = only very low levels of NFKB activation were detected
[9] = Table 3, FIG. 6, another occasion, * = only very low levels of NFKB activation were detected
[10] = Table 4, FIG. 7, another occasion
[11] = Table 4, FIG. 8, another occasion

EC50 (human TLR8; [7]) | EC50 (human TLR7; [8]) | hTLR7/8 ratio (human TLR7; Table 3) | EC50 (human TLR8; [9]) | hTLR7 agonist activity, in words (human TLR7) | hTLR8 agonist activity, in words (human TLR8) | SMILES | IFN-α induction, in words ([3]; FIG. 14, another occasion) | TNF-α induction, in words ([2]; FIG. 15, another occasion) | further results
0.8 µM | 2.2 µM | 1.9 | 1.1 µM |  |  | CCCCc1nc2c(N)nc3cc(OCCO)ccc3c2n1CCO [Comparative Example 3] | Weaker effects | effective at inducing TNF-α | EC50 (human TLR7; [4]): 1.56 µM; hTLR7/8 ratio (human TLR7; Table 1): 15.5; EC50 (human TLR7; [5]): 2.4 µM; hTLR7/8 ratio (human TLR7; Table 2): 2.9; IFN-α induction, in words ([3]; FIG. 10): equipotent at inducing IFN-α and these were more potent than Comparative Example 1 and Comparative Example 2 in this assay at a lower dose; EC50 (human TLR8; [6]): 0.1 µM; TNF-α induction, in words ([2]; FIG. 13): potent at inducing TNF-α
 | 1.6 µM | 0.7 | 2.2 µM | good agonist of hTLR7 and hTLR8 | good agonist of hTLR7 and hTLR8 | CCCCc1nc2c(N)nc3cc(OCCCCO)ccc3c2n1CCO [Comparative Example 4] | did not induce IFN-α | effective at inducing TNF-α | 

The remaining lines, values behind:

SMILES | EC50 (human TLR8; [7]) | EC50 (human TLR7; [8]) | hTLR7/8 ratio (human TLR7; Table 3) | EC50 (human TLR8; [9]) | hTLR7 agonist activity, in words (human TLR7) | hTLR8 agonist activity, in words (human TLR8) | IFN-α induction, in words ([3]; FIG. 14, another occasion) | TNF-α induction, in words ([2]; FIG. 15, another occasion) | further results
CCCCCCCC/C=C\CCCCCCCC(=O)OC[C@H](COP(=O)(O)OCCn1c(CCCC)nc2c(N)nc3ccccc3c21)OC(=O)CCCCCCC/C=C\CCCCCCCC [Comparative Example 2, reference compound] | 39.2 µM |  |  |  |  |  |  |  | IFN-γ induction, in words ([1]; FIG. 9): did not induce any IFN-γ; IFN-γ induction, in words ([1]; FIG. 11, another occasion): did not induce IFN-γ; EC50 (human TLR7; [4]): 34.6 µM; hTLR7/8 ratio (human TLR7; Table 1): 1.3; EC50 (human TLR7; [5]): 55.4 µM; hTLR7/8 ratio (human TLR7; Table 2): 1.4; EC50 (human TLR8; [6]): 26 µM; TNF-α induction, in words ([2]; FIG. 13): not significantly effective at inducing TNF-α
CCCCc1nc2c(N)nc3cc(OCCOCCOCCO)ccc3c2n1CCO [Comparative Example 5] |  | 13.2 µM | 0.8 | 16.3 µM | quite weak agonist of hTLR7 and hTLR8 | quite weak agonist of hTLR7 and hTLR8 | did not induce IFN-α | effective but less potent | 
CCCCCCCCCCCCCCCC(=O)OC[C@H](COCCOCCOCCOP(=O)(O)OCCOc1ccc2c(c1)nc(N)c1nc(CCCC)n(CCO)c12)OC(=O)CCCCCCCCCCCCCCC [Example 2] |  |  |  |  |  |  |  |  | EC50 (human TLR7; [10]): 6.1 µM; EC50 (human TLR8; [11]): 0.81 µM
CCCCc1nc2c(N)nc3cc(OCCOP(=O)(O)OCCOCCOCCO[C@H]4CC[C@@]5(C)C(=CC[C@H]6[C@@H]7CC[C@H]([C@H](C)CCCC(C)C)[C@@]7(C)CC[C@@H]65)C4)ccc3c2n1CCO [Example 4] | 31.9 µM |  |  |  |  |  |  |  | 
CCCCCCCC/C=C\CCCCCCCC(=O)OC[C@H](COP(=O)(O)OCCCCOc1ccc2c(c1)nc(N)c1nc(CCCC)n(CCO)c12)OC(=O)CCCCCCC/C=C\CCCCCCCC [Example 5] |  | 10.5 µM | 1.6 | 6.6 µM | very weak agonist of hTLR7 or hTLR8 | very weak agonist of hTLR7 or hTLR8 | potent but at higher dose | very weak effect | 
CCCCCCCC/C=C\CCCCCCCC(=O)OC[C@H](COP(=O)(O)OCCOCCOCCOc1ccc2c(c1)nc(N)c1nc(CCCC)n(CCO)c12)OC(=O)CCCCCCC/C=C\CCCCCCCC [Example 6] |  | 8.7 µM | 1.5 | 5.8 µM | very weak agonist of hTLR7 | reasonably potent agonist of hTLR8 | potent, but less so than Example 1 | effective but less potent | 
CCCCCCCCCCCCCCCC(=O)OC[C@H](COP(=O)(O)OCCOc1ccc2c(c1)nc(N)c1nc(CCCC)n(CCO)c12)OC(=O)CCCCCCCCCCCCCCC [Example 7] |  |  |  |  |  |  |  |  | EC50 (human TLR7; [10]): 14.6 µM; EC50 (human TLR8; [11]): 3.81 µM
